Values quoted from earlier work in US20140348873A1, “Urea-Silicone Gel for Hyperkeratosis Treatment” (PROFESSIONAL COMPOUNDING CENTERS OF AMERICA, priority 2013, published 2014).

Settings: general background statement; no experiment described

In the case of `NC(N)=O` [Urea], the “water content of the skin, level reached with urea” value is listed as 97.8%.
